ChEMBL document CHEMBL1147738, “Potent and selective mitogen-activated protein kinase kinase (MEK) 1,2 inhibitors. 1. 4-(4-bromo-2-fluorophenylamino)-1- methylpyridin-2(1H)-ones” (J Med Chem, 2006)

Tests used:
Malme-3M [1] = experiment: Inhibition of basal ERK phosphorylation in Malme-3M cells; format: functional, Homo sapiens
Malme-3M [2] = experiment: Inhibition of cellular viability of Malme-3M cells; format: functional, Homo sapiens

| Structure (SMILES) | Activity (Malme-3M [1]) [nM] | Activity (Malme-3M [2]) [nM] |
| --- | --- | --- |
| Cn1cc(C(=O)NOCCO)c(Nc2ccc(Br)cc2F)c(F)c1=O | 22 | 115 |
| Cn1cc(C(=O)O)c(Nc2ccc(Br)cc2F)c(F)c1=O | >10000 | >5000 |
| Cc1c(Nc2ccc(Br)cc2F)c(C(=O)NOCC2CC2)cn(C)c1=O | 7.5 | 46 |
| Cn1cc(C(=O)NOCC2CC2)c(Nc2ccc(Br)cc2F)c(F)c1=O | 3.4 | 22 |
| Cn1cc(C(=O)NOCCO)c(Nc2ccc(Br)cc2F)cc1=O | 73 | 460 |
| Cn1cc(C(=O)NOCC2CC2)c(Nc2ccc(Br)cc2F)c(Cl)c1=O | 27 | 195 |
| Cn1cc(C(=O)NOCC2CC2)c(Nc2ccc(Br)cc2F)cc1=O | 26 | 165 |
| Cn1cc(C(=O)NCC2CC2)c(Nc2ccc(Br)cc2F)c(F)c1=O | 1206 | >5000 |
